Data taken from patent US10155802B2, “Locally-active anticoagulants and anti-inflammatory agents” (priority 2011, dated 2018).
No end group written: not given here.

Legend:
[1] = tested on: FeCl3-induced arterial thrombosis (carotid artery); assay: FeCl3-induced arterial model of thrombosis in rats (time to occlusion); type: in vivo; conditions: rat, single-bolus injection
Experimental: Male Sprague-Dawley rats (250-310 g; Charles River Laboratories, St-Constant, QC, Canada) were acclimated for at least 3 days prior to the start of the study. Animals were housed in microisolator cages and were kept on a 12-hr light/dark cycle with constant temperature and humidity. Food and water were provided ad libitum. Various anti-thrombotic agents and peptides of this invention were dissolved in saline (0.9% sodium chloride) prior to use.
The FeCl3-induced arterial model of thrombosis in rats was also generated as described by Wang and Xu (Wang 2005) with some modifications (Couture 2011). Briefly, rats were anesthetized with a 2.5% isoflurane/oxygen mixture and placed on a heat source (35-37° C.). An incision was made over the right carotid artery, and a segment of the artery was exposed via blunt dissection. A Doppler flow probe (Model MA1PRB, Transonic System Inc., Ithaca, N.Y., USA) connected to a perivascular flow module (TS420, Transonic System Inc., Ithaca, N.Y., USA) was then attached to the carotid artery to monitor blood flow. Data were collected and analyzed using the MP100 Biopac™ Systems (Biopac Systems, Santa Barbara, Calif., USA), and the AcgKnowledge™ software (Biopac Systems, Santa Barbara, Calif., USA), respectively. Baseline blood flow was recorded for a minimum of 15 minutes until readings stabilized. Aquasonic 100 gel (Parker Laboratories, Inc., Fairfield, N.J., USA) was added to help conductivity and any fluid accumulating at the site of surgery was removed during data sampling without touching the probe. […] One minute after drug administration, a piece of filter paper (Gel Blot Paper, GB003, Whatman, Piscataway, N.J., USA; 7 mm diameter) saturated with 20% FeCl3 (EMD Chemicals Inc., Gibbstown, N.J., USA) was placed on the exposed surface of the carotid artery and incubated for 3.5 minutes. During the application of FeCl3, the neck region was covered with aluminum foil. At the end of the incubation period, the filter paper was removed and the exposed carotid was covered with a saline-soaked gauze. Time to occlusion was defined as the time from the application of FeCl3 until blood flow decreased to zero. […] Preparing and processing each animal took approximately 1 hr and 7 animals were treated each day. Control animals were always included when the other treatments were being administered. For this reason, the number of animals in the control group is higher than that of the treated-groups.
Statistical analysis was conducted using GraphPad™ Prism (GraphPad Software Inc., San Diego Calif., USA). Data were analyzed using one-way ANOVA with post-hoc Bonferroni correction for multiple comparisons. The relationship between thrombus weight and thrombus volume was determined by linear regression. […]

pooled human plasma [2] = assay: Activated partial thromboplastin time (APTT) clotting assay; type: biochemical; conditions: 37° C.; concentration for 50% of maximum delay in clotting time; read-out: MTC50 (APTT)
Experimental: (§1) Prothrombin (clotting) time (PT) or activated partial thromboplastin (clotting) time (APTT) assays were carried out at certain concentrations of the thrombin inhibitors of the present invention using pooled human plasma with addition of thromboplastin or activated partial thromboplastin to initiate clotting. The assays employed kits from Biopool International (Ventura, Calif., USA) or from Pacific Haemostasis (Middletown, Va., USA) using the procedures supplied by the manufacturer. Briefly, the stock solution of an inhibitor (with the concentration determined using UV-based OD determination, see Gill 1989) is diluted in a buffer of 20 mM HEPES and 150 mM NaCl at pH 7.4 (HBS) to a final volume of 50 μL, to which is added the reconstituted normal plasma (Product #CMS-176172 from Fisher Scientific) in an equal volume. This solution mixture is equilibrated at 37° C. for 2 minutes before 50 μL of the APTT-10XL solution (CMS-022927) is introduced forcibly to ensure proper mixing. This new mixture was incubated at 37° C. for another 5 minutes, which is followed by the addition of 50 μL of 0.02 M […] (Fisher Scientific CMS-022925) pre-warmed at 37° C. For the prothrombin time (PT) assay, an inhibitor is diluted in HBS to a final volume of 25 μL, to which is added the reconstituted control plasma (Fisher Scientific CMS-176172) in an equal volume. This solution mixture is equilibrated at 37° C. for 5 minutes before addition of 100 μL of the thromboplastin solution (CMS-176099) pre-warmed at 37° C. For APTT assays, inhibitory activities of the peptides are expressed as concentrations needed to achieve 50% of the maximum delay in clotting time (MCT50) as compared to the absence of thrombin inhibitors (Maraganore 1989). For PT assays, inhibitory activities are measured as the concentrations of the peptides that prolong the clotting time by 50% (IC50) of that of the normal control plasma (Maraganore 1990). PT and APTT assays were also carried out using slightly modified experimental procedures. Thus, 50 μL of a control plasma (Pacific Hemostasis) solution was added to 100 μL HBS (20 mM HEPES and 150 mM NaCl at pH 7.4) containing varied concentrations of the peptides of this invention. After incubation at 37° C. for 5 min, the mixture was added to 50 μL of the thromboplastin or activated partial thromboplastin reagent. Clotting of the plasma was monitored by change in absorbance at 420 nm using a SpectraMax™ plate reader.

[3] = tested on: human coagulation proteome; assay: Synthetic coagulation proteome assay (thrombin generation); type: biochemical; conditions: 37° C.
Experimental: This assay is carried out using an established protocol as described previously (Brummel-Ziedens 2008). Briefly, a pro-cofactor solution containing re-lipidated tissue factor (10 pM; molar ratio PCPS:TF=5000) was incubated with 4 μM PCPS in HBS (20 mM HEPES and 150 mM NaCl at pH 7.4) and 2 mM CaCl2 for 8 min at 37° C. Factor V (40 nM) and Factor VIII (1.4 nM) were then added to the mixture prior to initiation of the reaction to activate the protease zymogens in the blood coagulation cascade. The activation reaction was initiated by addition of the pro-cofactor solution to a zymogen solution containing prothrombin (2.8 μM), Factor VII (20 nM), Factor Vila (0.2 nM), FX (340 nM), Factor IX (180 nM), Factor XI (60 nM), TFPI (5 nM), antithrombin III (6.8 μM) […]
At selected time points after initiation of the reaction, 10 μL aliquots were withdrawn from the reaction mixture and quenched in 20 mM EDTA in HBS (pH 7.4) containing 0.2 mM Spectrozyme™ TH and assayed immediately for the proteolytic activity of thrombin. The hydrolysis of Spectrozyme™ TH was monitored by the change in absorbance at 405 nm using a SpectraMax™ plate reader (Molecular Devices Corp., Menlo Park, Calif., USA). Concentration of thrombin generated by the reaction was calculated from a standard curve prepared by serial dilutions of known concentrations of α-thrombin using the fibrinogen clotting assay (DiMaio 1990). Fibrinogen solution was freshly prepared by dissolving about 0.5% (w/v) fibrinogen in 50 mM Tris-HCl, 100 mM NaCl, 0.1% PEG-8000, pH 7.6 and filtering the resulting solution through a hydrophilic membrane of 0.45 μm polyvinylidene fluoride (PVDF) with low protein binding. The concentration of fibrinogen after filtration was determined by using the extinction coefficient of 15.0 for 1% fibrinogen at 280 nm. […] Thrombin-induced clotting of fibrinogen was followed at 25° C. by measuring the optical absorbance at 420 nm. The clotting time was obtained from extrapolation of the slope at the point of inflection to the zero absorbance baseline. […]

pooled human plasma [4] = assay: Prothrombin time (PT, thromboplastin) clotting assay; type: biochemical; conditions: for IC50: 37° C., concentration that prolongs clotting time by 50%
Experimental: as §1

rat-tail collagen type I = molecular target: T1, rat-tail collagen type I (Rattus norvegicus, UniProt P02454+P02466); assay: Peptide-collagen binding by reduction of collagen fibril alignment (deuterium coupling constant); conditions: collagen gelation under magnetic field in presence of peptide
T1 construct: purchased BD Bioscience; host or cells: rat tail (tissue-derived)
Description: High-resolution proton NMR spectroscopy is used to illustrate the behavior of the linker peptides […] (SEQ ID NO: 2 or gb1), […] (SEQ ID NO: 3 or trpzip6), […] (SEQ ID NO: 4 or trpzip5) and […] (SEQ ID NO: 5 or trpzip4) in aqueous solutions. The peptides were synthesized using standard Fmoc chemistry and purified by reverse-phase HPLC. Their identity was confirmed by mass-spectroscopy and NMR spectroscopy. For NMR studies, a volume of (400-X) μL of a peptide dissolved in pure water was mixed with 50 μL of a 10×PBS (phosphate-buffered saline) supplemented by sodium phosphate to a final concentration of 50 mM and with 50 μL of deuterated water (D2O) to form the reference sample (where X=0) and with a certain volume (X μL) of rat-tail collagen type I (at 3.6 to 4 mg/ml in 0.02 N acetic acid from BD Bioscience), (where X is adjusted to achieve the desired final concentration of collagen), with 50 μL of the 10× modified PBS and with 50 μL of deuterated water (D2O) to form the peptide-collagen complex. The pH value of the reference peptide samples was adjusted to match the pH of the final peptide-collagen complex in order to facilitate NMR spectral comparison.
The peptide-collagen solutions were subjected to gelation under magnetic field guidance (see Example 7) followed by the measurement of fibril alignment (Ma 2008) as a semi-quantitative indication of peptide-collagen binding. […]

T1 sequence (P02454 152-1207): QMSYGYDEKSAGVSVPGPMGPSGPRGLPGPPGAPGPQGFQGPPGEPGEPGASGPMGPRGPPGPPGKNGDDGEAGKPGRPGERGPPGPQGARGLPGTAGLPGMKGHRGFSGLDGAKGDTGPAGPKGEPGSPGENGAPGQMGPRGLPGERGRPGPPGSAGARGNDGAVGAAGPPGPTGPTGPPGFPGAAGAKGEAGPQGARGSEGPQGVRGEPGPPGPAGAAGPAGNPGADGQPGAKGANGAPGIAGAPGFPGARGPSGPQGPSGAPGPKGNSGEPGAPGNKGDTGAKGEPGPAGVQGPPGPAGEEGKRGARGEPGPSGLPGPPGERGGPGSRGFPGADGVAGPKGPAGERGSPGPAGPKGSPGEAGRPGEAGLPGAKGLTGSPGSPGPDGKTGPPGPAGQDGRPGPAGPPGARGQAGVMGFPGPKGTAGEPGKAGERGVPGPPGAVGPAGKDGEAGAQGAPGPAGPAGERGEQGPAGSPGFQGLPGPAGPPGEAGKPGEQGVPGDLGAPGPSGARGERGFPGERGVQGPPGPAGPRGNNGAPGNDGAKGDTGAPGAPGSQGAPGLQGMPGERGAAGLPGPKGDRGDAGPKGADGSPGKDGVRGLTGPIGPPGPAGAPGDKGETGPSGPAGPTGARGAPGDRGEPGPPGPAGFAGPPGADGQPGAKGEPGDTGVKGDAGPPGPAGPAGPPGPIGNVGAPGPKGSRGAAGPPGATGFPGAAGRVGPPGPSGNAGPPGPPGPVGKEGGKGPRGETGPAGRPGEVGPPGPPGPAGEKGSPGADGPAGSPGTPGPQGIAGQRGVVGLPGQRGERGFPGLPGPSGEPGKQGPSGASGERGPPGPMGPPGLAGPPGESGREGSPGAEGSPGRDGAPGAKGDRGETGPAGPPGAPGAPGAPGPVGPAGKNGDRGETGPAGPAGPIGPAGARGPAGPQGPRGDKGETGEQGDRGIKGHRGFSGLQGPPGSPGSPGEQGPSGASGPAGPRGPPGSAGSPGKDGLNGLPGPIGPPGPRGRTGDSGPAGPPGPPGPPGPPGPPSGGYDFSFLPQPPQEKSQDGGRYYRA
T1 sequence (P02466 86-1125): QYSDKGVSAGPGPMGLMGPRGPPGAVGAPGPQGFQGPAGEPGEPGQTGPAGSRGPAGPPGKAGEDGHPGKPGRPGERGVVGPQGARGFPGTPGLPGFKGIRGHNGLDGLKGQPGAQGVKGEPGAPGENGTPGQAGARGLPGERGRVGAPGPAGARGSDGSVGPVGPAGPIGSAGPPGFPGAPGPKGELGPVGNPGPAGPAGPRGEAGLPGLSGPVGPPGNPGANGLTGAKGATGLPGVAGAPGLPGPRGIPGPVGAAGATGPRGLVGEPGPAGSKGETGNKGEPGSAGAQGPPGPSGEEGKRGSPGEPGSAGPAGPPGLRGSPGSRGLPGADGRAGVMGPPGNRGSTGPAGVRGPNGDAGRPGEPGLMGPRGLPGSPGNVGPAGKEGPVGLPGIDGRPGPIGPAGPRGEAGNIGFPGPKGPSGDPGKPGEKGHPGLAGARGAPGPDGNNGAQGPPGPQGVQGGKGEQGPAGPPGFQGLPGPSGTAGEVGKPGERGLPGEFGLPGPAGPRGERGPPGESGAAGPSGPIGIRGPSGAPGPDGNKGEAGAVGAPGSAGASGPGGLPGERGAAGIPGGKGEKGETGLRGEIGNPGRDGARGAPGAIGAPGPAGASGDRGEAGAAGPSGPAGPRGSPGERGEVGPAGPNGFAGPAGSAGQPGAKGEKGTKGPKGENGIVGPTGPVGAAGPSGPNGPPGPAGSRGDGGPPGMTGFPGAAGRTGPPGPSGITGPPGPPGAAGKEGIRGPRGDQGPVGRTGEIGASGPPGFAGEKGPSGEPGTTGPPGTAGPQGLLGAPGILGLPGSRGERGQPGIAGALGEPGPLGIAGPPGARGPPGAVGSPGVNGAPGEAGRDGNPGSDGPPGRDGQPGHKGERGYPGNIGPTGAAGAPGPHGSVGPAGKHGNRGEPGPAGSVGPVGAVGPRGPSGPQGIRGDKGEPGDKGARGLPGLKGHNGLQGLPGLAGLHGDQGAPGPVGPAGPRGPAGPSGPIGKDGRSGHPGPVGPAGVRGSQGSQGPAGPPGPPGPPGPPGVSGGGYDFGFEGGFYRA

With `CC1CNc2c(cccc2S(=O)(=O)N[C@@H](CCCNC(=N)N)C(=O)N2CC[C@@H](C)C[C@@H]2C(=O)O)C1` (some centres unmarked) [Argatroban, reference compound] the “reduction of arterial occlusion” value [1] was “consistently better efficacy”.

With `CC[C@H](C)[C@H](N)C(=O)N[C@@H](CCCNC(=N)N)C(=O)N[C@@H](Cc1ccccc1)C(=O)N[C@H](C(=O)N[C@@H](CC(=O)O)C(=O)NCC(=O)N[C@@H](CCC(=O)O)C(=O)NCC(=O)N[C@H](C(=O)NCC(=O)N[C@@H](CO)C(=O)NCC(=O)N[C@@H](CO)C(=O)NCC(=O)N[C@@H](CO)C(=O)NCC(=O)N[C@@H](CO)C(=O)NCC(=O)N[C@@H](CC(=O)O)C(=O)N[C@@H](Cc1ccccc1)C(=O)N[C@@H](CCC(=O)O)C(=O)N[C@@H](CCC(=O)O)C(=O)N[C@H](C(=O)N1CCC[C@H]1C(=O)N[C@@H](CCC(=O)O)C(=O)N[C@@H](CCC(=O)O)C(=O)N[C@@H](Cc1ccc(O)cc1)C(=O)N[C@@H](CC(C)C)C(=O)N[C@@H](CCC(N)=O)C(=O)O)[C@@H](C)CC)[C@@H](C)O)[C@@H](C)O` [MH2-GS] the EC50 (pooled human plasma [2]) was 0.9 µM, the “delay of thrombin burst / onset of thrombin generation” value [3] was “clear dose-dependency for the delay of thrombin burst” and the IC50 (pooled human plasma [4]) was 0.2 µM. The “anticoagulant effect in PT versus APTT assays” value (pooled human plasma [4]; in words) was “more potent effect in delaying the prothrombin time as compared to APTT”.

In the case of Bivalirudin [reference compound], the IC50 (pooled human plasma [4]) is reported as 0.093 µM and the “reduction of arterial occlusion” value [1] is reported as “consistently better efficacy”.

For “GEWTWDDATKTWTWTE (not fully specified (C-terminus)) [trpzip4]”, the “reduction of deuterium coupling constant (degree of collagen fibril alignment)” value (rat-tail collagen type I) was “more than 1.0 Hz”.
